From PMC7870829, “Structural basis for the biosynthesis of lovastatin” (Nature Communications, 2021) come the findings set out here.

One test concerns the target T1, LovB (Aspergillus terreus, UniProt Q9Y8A5).
T1 construct: dimer; ACP and CON domains not resolved; DSS-crosslinked with LovC for cryo-EM
Put plainly: cryo-EM structure. Format: binding. The following applies: KR domain NADPH pocket; sample with 2 mM each Mal-CoA, NADPH and SAM; pH 8.0.

The next test addresses T2, LovC (Aspergillus terreus, UniProt Q9Y7D0).
T2 construct: full-length, His-tagged (pET28_LovCcH), expressed in E. coli, without LovB
T2 sequence (Q9Y7D0 1-363): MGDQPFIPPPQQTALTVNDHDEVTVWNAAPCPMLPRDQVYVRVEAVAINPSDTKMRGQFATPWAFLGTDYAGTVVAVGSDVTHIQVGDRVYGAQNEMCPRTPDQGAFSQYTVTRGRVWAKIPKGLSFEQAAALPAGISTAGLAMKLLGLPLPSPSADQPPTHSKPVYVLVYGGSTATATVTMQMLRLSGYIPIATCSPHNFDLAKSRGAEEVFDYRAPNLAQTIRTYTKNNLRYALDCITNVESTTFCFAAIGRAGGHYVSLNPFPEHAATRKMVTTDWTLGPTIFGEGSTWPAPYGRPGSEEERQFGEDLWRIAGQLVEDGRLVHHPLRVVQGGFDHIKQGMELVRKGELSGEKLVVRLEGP
The test is described as follows: NADPH fluorescence (Ex […] nm, Em […] nm). The following applies: 100 μM NADPH, 200 μM crotonoyl-CoA, 100 mM KH2PO4 pH 7.0, 2% DMSO, 25 °C. Format: biochemical.

Test [1] addresses lovastatin nonaketide synthase (LovB), full-length, His-tagged (Aspergillus terreus) (UniProt Q9Y8A5). The test is described as follows: cryo-EM structure; LovB mixed with LovC and 2 mM each of Mal-CoA, NADPH and SAM, cross-linked with DSS, SEC on Superose 6 Increase (50 mM Tricine pH 8.0, 4 mM SAM), cofactors re-added, 0.1% Tween 20; maps at 2.91 Å (LovB) and 3.60 Å (LovBC with one LovC).

T1 sequence (Q9Y8A5 whole entry, the tested form may be a part): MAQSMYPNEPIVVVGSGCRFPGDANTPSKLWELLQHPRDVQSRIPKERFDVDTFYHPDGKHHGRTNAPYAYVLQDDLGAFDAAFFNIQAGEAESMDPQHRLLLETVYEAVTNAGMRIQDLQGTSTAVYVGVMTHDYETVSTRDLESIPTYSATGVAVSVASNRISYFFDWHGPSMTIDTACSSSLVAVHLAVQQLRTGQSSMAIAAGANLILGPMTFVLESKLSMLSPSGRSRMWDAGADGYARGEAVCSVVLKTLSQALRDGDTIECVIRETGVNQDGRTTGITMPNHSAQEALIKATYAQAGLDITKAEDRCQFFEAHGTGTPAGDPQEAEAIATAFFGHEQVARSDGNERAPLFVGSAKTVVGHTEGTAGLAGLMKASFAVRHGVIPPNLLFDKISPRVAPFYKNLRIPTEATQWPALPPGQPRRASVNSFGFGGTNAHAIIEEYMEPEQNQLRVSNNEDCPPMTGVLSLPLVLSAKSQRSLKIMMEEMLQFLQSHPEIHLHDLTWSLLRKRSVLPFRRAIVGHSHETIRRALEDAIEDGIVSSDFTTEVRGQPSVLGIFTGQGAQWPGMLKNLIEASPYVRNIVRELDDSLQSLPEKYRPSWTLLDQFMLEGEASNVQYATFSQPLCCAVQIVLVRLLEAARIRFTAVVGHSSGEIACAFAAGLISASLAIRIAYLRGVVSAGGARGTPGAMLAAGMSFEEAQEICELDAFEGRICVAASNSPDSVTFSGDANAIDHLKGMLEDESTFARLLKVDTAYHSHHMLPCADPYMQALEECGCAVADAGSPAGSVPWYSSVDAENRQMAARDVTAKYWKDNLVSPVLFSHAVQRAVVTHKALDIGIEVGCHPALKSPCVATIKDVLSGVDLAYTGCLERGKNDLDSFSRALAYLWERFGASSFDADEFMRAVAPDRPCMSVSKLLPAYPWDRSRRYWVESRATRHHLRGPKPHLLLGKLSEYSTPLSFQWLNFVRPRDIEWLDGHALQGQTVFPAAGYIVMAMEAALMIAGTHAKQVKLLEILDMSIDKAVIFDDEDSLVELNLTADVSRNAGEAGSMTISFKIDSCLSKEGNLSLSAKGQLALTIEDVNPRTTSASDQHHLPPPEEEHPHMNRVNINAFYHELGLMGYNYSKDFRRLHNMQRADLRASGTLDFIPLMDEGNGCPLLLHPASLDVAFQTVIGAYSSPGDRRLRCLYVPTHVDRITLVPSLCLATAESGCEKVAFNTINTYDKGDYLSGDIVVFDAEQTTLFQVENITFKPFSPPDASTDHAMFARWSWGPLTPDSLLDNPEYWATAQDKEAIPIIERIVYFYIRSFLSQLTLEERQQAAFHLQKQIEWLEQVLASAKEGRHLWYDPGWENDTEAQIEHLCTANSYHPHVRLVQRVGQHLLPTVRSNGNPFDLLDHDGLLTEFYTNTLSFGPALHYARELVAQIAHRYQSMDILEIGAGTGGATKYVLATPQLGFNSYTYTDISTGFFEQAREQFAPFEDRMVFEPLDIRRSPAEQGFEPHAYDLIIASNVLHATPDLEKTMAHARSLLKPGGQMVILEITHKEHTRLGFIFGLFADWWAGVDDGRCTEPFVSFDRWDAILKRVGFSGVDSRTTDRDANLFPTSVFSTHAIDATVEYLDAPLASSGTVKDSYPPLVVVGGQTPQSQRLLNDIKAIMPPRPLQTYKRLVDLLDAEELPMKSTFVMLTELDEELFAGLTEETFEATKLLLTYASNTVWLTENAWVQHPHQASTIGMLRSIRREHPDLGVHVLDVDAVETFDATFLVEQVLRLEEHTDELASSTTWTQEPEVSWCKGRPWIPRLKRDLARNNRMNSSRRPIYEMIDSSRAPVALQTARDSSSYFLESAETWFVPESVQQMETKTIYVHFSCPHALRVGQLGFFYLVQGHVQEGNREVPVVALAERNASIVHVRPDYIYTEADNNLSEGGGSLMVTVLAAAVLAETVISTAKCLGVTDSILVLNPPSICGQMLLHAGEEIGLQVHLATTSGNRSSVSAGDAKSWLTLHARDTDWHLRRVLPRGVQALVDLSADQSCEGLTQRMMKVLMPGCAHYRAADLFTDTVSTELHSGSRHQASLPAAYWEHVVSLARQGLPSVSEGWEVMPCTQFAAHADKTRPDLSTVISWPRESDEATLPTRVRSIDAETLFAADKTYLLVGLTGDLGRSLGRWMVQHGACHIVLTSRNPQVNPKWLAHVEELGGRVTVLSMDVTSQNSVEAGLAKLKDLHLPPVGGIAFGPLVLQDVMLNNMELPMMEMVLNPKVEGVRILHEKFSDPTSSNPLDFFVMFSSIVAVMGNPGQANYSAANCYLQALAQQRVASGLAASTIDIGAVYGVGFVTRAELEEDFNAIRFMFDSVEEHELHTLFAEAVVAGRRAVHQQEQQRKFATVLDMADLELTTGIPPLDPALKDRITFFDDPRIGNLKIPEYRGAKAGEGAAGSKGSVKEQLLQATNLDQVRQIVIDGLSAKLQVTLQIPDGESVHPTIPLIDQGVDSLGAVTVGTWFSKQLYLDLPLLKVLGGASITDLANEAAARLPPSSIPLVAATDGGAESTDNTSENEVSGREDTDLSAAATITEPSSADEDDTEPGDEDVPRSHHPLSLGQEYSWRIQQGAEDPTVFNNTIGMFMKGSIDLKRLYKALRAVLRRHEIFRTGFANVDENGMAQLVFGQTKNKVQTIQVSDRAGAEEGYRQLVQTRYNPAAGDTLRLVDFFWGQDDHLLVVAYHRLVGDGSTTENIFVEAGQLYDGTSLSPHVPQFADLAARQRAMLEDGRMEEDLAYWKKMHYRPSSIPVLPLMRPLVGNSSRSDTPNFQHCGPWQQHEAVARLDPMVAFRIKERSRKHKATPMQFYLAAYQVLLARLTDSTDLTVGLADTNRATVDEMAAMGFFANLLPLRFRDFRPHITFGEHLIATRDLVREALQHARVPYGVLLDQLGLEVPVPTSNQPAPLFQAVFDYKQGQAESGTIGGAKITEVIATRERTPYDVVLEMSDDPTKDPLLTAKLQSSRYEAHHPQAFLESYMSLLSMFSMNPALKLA

With `NC(=O)c1ccc[n+]([C@@H]2O[C@H](COP(=O)(O)OP(=O)(O)OC[C@H]3O[C@@H](n4cnc5c(N)ncnc54)[C@H](OP(=O)(O)O)[C@@H]3O)[C@@H](O)[C@H]2O)c1` [NADP+], the cryo-EM structure result on LovB was “The NADPH binding pocket with bound NADP^+ nicotinamide ring can be clearly identified”.

As for `NC(=O)C1=CN([C@@H]2O[C@H](COP(=O)(O)OP(=O)(O)OC[C@H]3O[C@@H](n4cnc5c(N)ncnc54)[C@H](OP(=O)(O)O)[C@@H]3O)[C@@H](O)[C@H]2O)C=CC1` [NADPH], at LovC, the “NADPH fluorescence (Ex 340 nm, Em 455 nm)” value is “NADPH was oxidized in the presence of substrate over time”.

Usually stoichiometry N stands for the number of molecules, sites or subunits per partner or assembly. In test [1], “lovastatin nonaketide synthase (LovB), full-length, His-tagged, Q9Y8A5 1-3038” displayed a stoichiometry N of 2.
